# Measured values taken from patent US20080227728A1, “Therapeutic Agent for the Treatment of a Condition Associated with Peripheral Vascular Disease” (LABORATORIOS BELMAC, S.A., priority 2005, published 2008).
# Test system: individuals showing problems related to venous insufficiency
# Assay: Administration of oleuropein to patients suffering from venous insufficiency (general statements)
# Conditions: compared with other drugs known for peripheral vascular disease symptoms
smiles,measurement,value
C/C=C1/[C@H](O[C@@H]2O[C@H](CO)[C@@H](O)[C@H](O)[C@H]2O)OC=C(C(=O)OC)[C@H]1CC(=O)OCCc1ccc(O)c(O)c1 [oleuropein],side effects,do not show significant side effects
